We go through eight molecules from patent US6797728B2, “Use of intracellular calcium chelators to increase surfactant secretion in the lungs” (Thomas Jefferson University, priority 2000, dated 2004).

The subject of data set [1] is alveolar type II cells. In words: Surfactant secretion assay (secretion of 3H-labeled phospholipid by type II cells). It counts as cell-based, rat. The note with it: for effect of calcium depletion on secretagogue-stimulated PL secretion: cells in Ca2+-free medium overnight and during the 2 h assay, ATP 500 μM, TG 10 μM, Io 1 μM, PMA 50 ng/ml, BAPTA-AM 25 μM; for effect of re-adding calcium after overnight depletion on secretagogue-induced PL secretion: Ca2+ added back to 1.64 mM at start of the 2 hr secretion assay; for effect of removing extracellular Ca2+ during the assay on secretagogue-elicited surfactant secretion: normal medium overnight, Ca2+-free medium for the 2 h assay, FIG. 4; for % PL secreted: BAPTA 25 μM, SP-A 100 ng/ml, alone or together, percentage of 3H-labeled phospholipid secreted, no additions 8.33. The procedure:
Freshly isolated type II cells were prepared according to standard techniques, originally described by Dobbs (Dobbs, et al, AM. Rev. Respir. Dis. 134, 141-145, 1986), and later modified by Sen and Chander (Sen and Chander, Biochem. J. 298: 681-687, 1994). The use of these techniques has been previously reported. (Strayer, et al, Ex. Cell Res. 226: 90-97, 1996; Strayer, et al, Rec. Signal Transd. 7: 111-120, 1997). Briefly, lungs of anesthetized rats were cleared of blood and treated with elastase endotracheally (Worthington Biochemical, Freehold, N.J.) to obtain free cells. The cells were separated from lung debris and plated on bacteriological plates coated with normal rat IgG (Sigma Chemical Co., St. Louis, Mo.). After 1 hr, free cells were collected by panning, pelleted, and resuspended (0.8×10^6 cells/ml) in minimum essential medium (MEM)+10% fetal bovine serum (FCS, Life Technologies, Gaithersburg, Md.).
Secretion studies were performed as described by Sen and Chander. (Sen and Chander, Biochem. J. 298: 681-687, 1994). Briefly, 0.8×10^6 alveolar type II cells were cultured for 18 h in MEM with 10% FBS+0.5 μCi of [methyl-^3H]-choline (Amersham, Arlington Heights, Ill.) to label cellular phospholipids (PL) metabolically. Cells were washed to remove non-adherent cells and unincorporated radioactivity. After replacing this medium with fresh MEM, plates were incubated for 15 min. SP-A (100 ng/ml) was added to selected plates, followed by incubation for an additional 15 min.; secretagogues were then added at the appropriate concentrations [control (no addition), ATP (500 μM), TG (10 μM), ionomycin (1 μM), PMA (50 ng/ml)]. At this point (t=0) in each experiment, some samples were removed for analysis of secreted labeled lipids to establish a baseline. Incubation proceeded for an additional 2 h for all other plates. Following this incubation, media were removed and centrifuged (15 min., 300×g) to pellet cells that detached during incubation. These cells were later pooled with those recovered from the plates. Lipids from both media and plates were extracted (Sen and Chander, Biochem. J. 298: 681-687, 1994) after adding [methyl-^14C]-DPPC (Amersham, Arlington Heights, Ill.) as a recovery standard, and egg phosphatidylcholine (Sigma Chemical Co., St. Louis, Mo.) as a carrier lipid. Recovered lipids were dissolved in Scintiverse II fluid (Fisher Scientific, Pittsburgh, Pa.) and the radioactivity of these lipid extracts measured with a scintillation counter (Beckman Instruments, Fullerton, Calif.). ^3H-labeled phospholipid recovery was normalized to recovery of [methyl-^14C]-DPPC. Phospholipid secretion was determined as percent secretion=(cpm in lipids recovered from media×100)/(cpm in lipids recovered from media and plates).

Data set [2] has as its system [Ca^2+]l in type II cells. In words: ER (lumenal) calcium concentration, fura2ff fluorescence with Mn2+ quench. It counts as cell-based, rat. The settings on record: fura2ff 340/380 nm ratio, Mn2+ added, FIG. 7. The procedure: Type II cells were prepared as described and plated on glass coverslips that had been pretreated with poly-L-lysine (Sigma, 0.01%, 20° C., 15 mins). After incubation overnight at 37° C. in MEM-10% FCS, the cells were washed three times with serum-free MEM and once with loading buffer (121 mM NaCl, 4.7 mM KCl, 1.2 mM KH2P04, 1.2 mM MgSO4, 2% BSA, 10 mM glucose, 20 mM HEPES, 2 mM CaCl2). The cells were loaded in loading buffer containing 10 μM Fura-2FF(AM) (Teflabs, Austin, Tex.) and 0.06% Pluronic Acid (Molecular Probes, Inc.) for two hours with shaking at 37° C. The coverslip was washed in calcium-free imaging buffer (121 mM NaCl, 4.7 mM KCl, 1.2 mM KH2PO4, 1.2 mM MgSO4, 10 mM glucose, 20 mM HEPES), inserted into a thermostatically regulated chamber (37° C.), and mounted on an inverted fluorescence microscope in 1 ml of imaging buffer. Fluorescence imaging following excitation at 340 nm and 380 nm was performed (supra).
During imaging MnCl2 was added at time=0 to a final concentration of 500 μM followed by either SP-A, ionomycin, or TG (final concentrations 100 ng/ml, 1 μM and 4 μM respectively).
Decreases in [Ca^2+]l, rather than increases in [Ca^2+]i, were hypothesized to be the critical regulator of surfactant secretion by all secretagogues, with the exception of PMA. This theory predicts that BAPTA-AM, and other calcium-dependent secretagogues, would decrease [Ca^2+]l, but that PMA would not. Thus, type II cells were loaded with fura2ff. This fluorophore has a much lower affinity for calcium in the μM range than fura2 does, and is therefore used to assess changes in [Ca^2+]l. Type II cells were also treated with Mn^2+, which binds cytoplasmic fura2ff and prevents its binding to Ca^2+. (Dorn, et al, Br. J. Pharmacol. 97: 163-170, 1989; Kuroki, et al, Biochem. J. 115: 115-119, 1991; Miyata, et al, Am. J. Physiol. 261: H1123-H1134, 1991). Any changes in the lumenal free calcium concentration were measured as changes in the ratio of fura2ff excitation at 340 nm to that at 380 nm. […] PMA had no effect.

For data set [3] the following is noted: read-out: affinity of BAPTA for calcium; cited from earlier work.
Data set [4] deals with [Ca^2+]i in type II cells. Put plainly: Cytosol free calcium concentration, fura2 digital imaging fluorescence microscopy. In kind it is cell-based, rat. The settings on record: fura2 340/380 nm ratio, compared to mock-treated cells. As to the method:
10^6 freshly isolated type II cells were added to 35 mm tissue culture plates, each containing a polylysine (Sigma Chemical Co.) coated 25 mm diameter coverslip and incubated (37° C., 5% CO2) for at least 2 hr. Twenty min before use, Fura2/AM (Molecular Probes) was added (final concentration, 3 μM) to each coverslip. After Fura2 loading, the coverslips were washed with cell incubation buffer (121 mM NaCl, 4.7 mM KCl, 1.2 mM KH2PO4, 1.2 mM MgSO4, 2 mM CaCl2, 10 mM glucose, 5 mM NaHCO3, 0.2% BSA, and 10 mM HEPES/NaOH, pH 7.4) and inserted into a thermostatically regulated chamber (37° C.). Cell incubation buffer was added and the whole assembly placed on the stage of a Nikon Diaphot inverted microscope. At appropriate times (see infra), secretagogues in the appropriate concentration (see supra) were added. Fluorescence images of the cells were collected by exciting the cells alternately at 340 and 380 nm and measuring emission at 500 nm using a charge-coupled device camera (Photometrics, Inc.) as described previously. (Rooney, et al, Biol. Chem 264: 17131-17141, 1989). Image acquisition and analysis were done with Macintosh computers running customized image-processing software. The ratio (340/380) of Fura2 excitation was calibrated to [Ca^2+]i as described. (Rooney, et al, Biol. Chem 264: 17131-17141, 1989; Grynkiewicz, et al, J. Biol. Chem. 260: 3440-3450, 1985).

The test system of data set [5] is type II cells.
Experimental: (§1) Viability of type II cells was tested both by trypan blue exclusion, and by tetrazolium/formazan assay (Promega Corp., Madison, Wis.), which measures mitochondrial dehydrogenases. These enzymes are only present in active form in living cells and are absent in nonviable cells. […] For such studies, an assay solution containing the tetrazolium compound (3-(4,5-dimethylthiazol-2-yl)-5-(3-carboxymethoxyphenyl)-2-(4-sulfonyl)-2H-tetrazolium, inner salt; MTS) and an electron-coupling reagent (phenazine methosulfate; PMS) in MEM is added to the cells. […] Correction was made for the small effect of BAPTA itself on this reaction by running a parallel assay on plates with no cells.
(§2) In these studies, cellular viability was determined in two ways. Viable cells enumerated by counting trypan blue-excluding cells. […] In addition, cellular viability in BAPTA-AM-treated cultures was measured using the tetrazolium/formazan assay for mitochondrial dehydrogenase.
The subject of data set [6] is type II cells. This is another data set of the same source.
Experimental: as §1, §2
In data set [7] the test system is alveolar type II cells. Put plainly: Surfactant secretion assay (secretion of 3H-labeled phospholipid by type II cells). In kind it is cell-based, rat. The settings on record: within 4 hours of treatment; control cells release about 7%.
Data set [8] deals with type II cells. In words: Type II cell viability by trypan blue exclusion. The settings on record: at the concentrations of FIG. 2; compared to each other and to untreated type II cells.
Experimental: as §1, §2

Like-named read-outs stand apart in the source and are kept apart here.

As for `Nc1ncnc2c1ncn2[C@@H]1O[C@H](COP(=O)(O)OP(=O)(O)OP(=O)(O)O)[C@@H](O)[C@H]1O` [ATP], the “effect of calcium depletion on secretagogue-stimulated PL secretion” value (“effect of calcium depletion” for short) in the data set on alveolar type II cells [1] is listed as “prevented”.
Regarding `O=C(O)CN(CC(=O)O)c1ccccc1OCCOc1ccccc1N(CC(=O)O)CC(=O)O` [BAPTA, 1,2-bis(2-aminophenoxy)ethane-N,N,N, N-tetraacetic acid], in the data set with alveolar type II cells [1], the “effect of re-adding calcium after overnight depletion on secretagogue-induced PL secretion” value (from here on “effect of re-adding calcium”) is listed as “restored”, the “effect of calcium depletion” value is on record as “prevented BAPTA secretagogue activity” and the “effect of removing extracellular Ca2+ during the assay on secretagogue-elicited surfactant secretion” value is “not significantly altered”. In addition, the “surfactant secretion at 5 μM BAPTA” value in the data set on alveolar type II cells [1] (dose-response studies, concentration range of 5 μM) is “below the threshold”. For the same molecule, the “concentrations at which BAPTA stimulates surfactant secretion (powerful secretagogue)” value with alveolar type II cells [1] (dose-response, FIG. 2) was 25 to 100 µM. Moreover, the “effect on lumenal free calcium concentration [Ca^2+]l” value in data set [2] was “decreased [Ca^2+]l”. The Kd in data set [3] was 160 nM.
In the case of `CC(=O)OCOC(=O)CN(CC(=O)OCOC(C)=O)c1ccccc1OCCOc1ccccc1N(CC(=O)OCOC(C)=O)CC(=O)OCOC(C)=O` [BAPTA-AM, 1,2-bis(2-aminophenoxy)ethane-N,N,N, N-tetraacetic acid acetoxymethyl ester], the “% PL secreted” value in the data set on alveolar type II cells [1] is on record as 15.47%. For the same molecule, in data set [4], the “effect on cytosol free calcium concentration [Ca^2+]i” value was “caused [Ca^2+]i to decrease somewhat”. In the data set on type II cells [5], the “effect on cell viability (trypan blue-excluding cells)” value is “Neither BAPTA-AM nor TPEN at these concentrations had any effect on cell viability”. For the same molecule, the “viability of treated type II cells (tetrazolium/formazan)” value with type II cells [6] is given as “does not differ from that of control cells”. Also, the stored surfactant released result in the data set with alveolar type II cells [7] was “about ⅔”.
Regarding `C[C@H](CCC(=O)O)C[C@H](C)C[C@H](C)C(=O)/C=C(\O)[C@H](C)C[C@H](C)C/C=C/[C@@H](C)[C@@H](O)[C@@H](C)[C@@H](O)C[C@@H]1CC[C@@](C)([C@H]2CC[C@@](C)([C@@H](C)O)O2)O1` [Io, ionomycin], in the data set with alveolar type II cells [1], the “effect of re-adding calcium” value is “restored”, the “effect of calcium depletion” value is recorded as “prevented” and the “effect of removing extracellular Ca2+ during the assay on secretagogue-elicited surfactant secretion” value was “not significantly altered”. Also, the “effect on lumenal free calcium concentration [Ca^2+]l” value in data set [2] was “decreased [Ca^2+]l”.
In the case of `CCCCCCCCCCCCCC(=O)O[C@@H]1[C@@H](C)[C@@]2(O)[C@@H](C=C(CO)C[C@]3(O)C(=O)C(C)=C[C@@H]23)[C@@H]2C(C)(C)[C@]12OC(C)=O` [PMA, phorbol 12-myristate 13-acetate], in the data set on alveolar type II cells [1], the “effect of re-adding calcium” value is on record as “increased PMA-induced secretion, but this effect was not statistically significant”; the “effect of calcium depletion” value is reported as “did not alter”; the “effect of removing extracellular Ca2+ during the assay on secretagogue-elicited surfactant secretion” value is reported as “Statistically significant but small decreases”. Besides, the “effect on cytosol free calcium concentration [Ca^2+]i” value in data set [4] is “did not alter [Ca^2+]i”. For the same molecule, the “effect on lumenal free calcium concentration [Ca^2+]l” value in data set [2] is reported as “no effect”.
In the case of `C/C=C(/C)C(=O)O[C@H]1C(C)=C2[C@H]([C@@H]1OC(=O)CCCCCCC)[C@@](C)(OC(C)=O)C[C@H](OC(=O)CCC)[C@@]1(O)[C@H]2OC(=O)[C@@]1(C)O` [TG, thapsigargin], in the data set on alveolar type II cells [1], the “effect of re-adding calcium” value is “restored”, the “effect of calcium depletion” value is on record as “partially inhibited” and the “effect of removing extracellular Ca2+ during the assay on secretagogue-elicited surfactant secretion” value is given as “Statistically significant but small decreases”.
With `c1ccc(CN(CCN(Cc2ccccn2)Cc2ccccn2)Cc2ccccn2)nc1` [TPEN, N,N,N′,N′-tetrakis-(2-pyridylmethyl) ethylenediamine], in the data set on alveolar type II cells [1] (TPEN up to 150 μM, FIG. 2), the secretagogue activity entry is listed as “no secretagogue activity”. For the same molecule, the “effect on cell viability (trypan blue-excluding cells)” value in the data set on type II cells [8] was “Neither BAPTA-AM nor TPEN at these concentrations had any effect on cell viability”.
As for surfactant-associated protein-A [SP-A], the “% PL secreted” value with alveolar type II cells [1] amounted to 4.98%. In the data set with alveolar type II cells [1] (SP-A pretreatment, then BAPTA-AM loading concentration 25 μM, versus cells not exposed to SP-A), the “BAPTA-induced surfactant secretion after SP-A pretreatment” value is “significantly less surfactant secretion”. Further, in data set [2], the “effect on lumenal free calcium concentration [Ca^2+]l” value was “increased [Ca^2+]l”.
